Experimental data published in the NIST ThermoML archive (doi:10.1016/j.tca.2016.03.002).
± gives the expanded uncertainty stated by the source.

Experiment: xn = mol fraction of the nth substance listed
Details: 100 kPa, Liquid; for viscosity: Capillary tube (Ostwald / Ubbelohde) method; for mass density: Vibrating tube method

NC1CCCCC1 [cyclohexylamine] + CO
Details	mass density, 293.15 K [kg/m3]	mass density, 298.15 K [kg/m3]	mass density, 303.15 K [kg/m3]	viscosity, 293.15 K [mPa·s]	viscosity, 298.15 K [mPa·s]	viscosity, 303.15 K [mPa·s]
x2 = 0	866.86 ± 2.1	862.315 ± 2.1	857.774 ± 2.1	2.142 ± 0.046	1.908 ± 0.041	1.697 ± 0.036
x2 = 0.0666	867.932 ± 2.1	863.427 ± 2.1	858.919 ± 2.1	2.16 ± 0.05	1.92 ± 0.04	1.71 ± 0.04
x2 = 0.1108	868.284 ± 2.1	863.705 ± 2.1	859.196 ± 2.1	2.17 ± 0.05	1.93 ± 0.04	1.71 ± 0.04
x2 = 0.2089	869.337 ± 2.1	864.848 ± 2.1	860.385 ± 2.1	2.18 ± 0.05	1.94 ± 0.04	1.72 ± 0.04
x2 = 0.3043	869.454 ± 2.1	864.932 ± 2.1	860.42 ± 2.1	2.19 ± 0.05	1.94 ± 0.04	1.72 ± 0.04
x2 = 0.4097	868.83 ± 2.1	864.276 ± 2.1	859.728 ± 2.1	2.16 ± 0.05	1.91 ± 0.04	1.69 ± 0.04
x2 = 0.4479	868.248 ± 2.1	863.674 ± 2.1	859.094 ± 2.1	2.13 ± 0.04	1.88 ± 0.04	1.66 ± 0.04
x2 = 0.493	867.202 ± 2.1	862.605 ± 2.1	–	2.07 ± 0.04	1.83 ± 0.04	–
x2 = 0.4931	–	–	858.005 ± 2.1	–	–	1.62 ± 0.03
x2 = 0.5478	865.137 ± 2.1	860.518 ± 2.1	855.9 ± 2.1	1.99 ± 0.04	1.76 ± 0.04	1.56 ± 0.03
x2 = 0.5961	862.688 ± 2.1	858.069 ± 2.1	–	1.89 ± 0.04	1.67 ± 0.04	–
x2 = 0.5966	–	–	853.451 ± 2.1	–	–	1.48 ± 0.03
x2 = 0.659	858.061 ± 2.1	853.437 ± 2.1	848.818 ± 2	1.7 ± 0.04	1.52 ± 0.03	1.35 ± 0.03
x2 = 0.7014	853.915 ± 2.1	849.321 ± 2.1	844.723 ± 2	1.56 ± 0.03	1.4 ± 0.03	1.26 ± 0.03
x2 = 0.798	841.114 ± 2	836.513 ± 2	831.905 ± 2	1.22 ± 0.03	1.11 ± 0.02	1.04 ± 0.02
x2 = 0.8992	820.891 ± 2	816.251 ± 2	811.617 ± 2	0.89 ± 0.02	0.78 ± 0.02	0.75 ± 0.02
x2 = 0.9503	807.371 ± 2	802.691 ± 2	798.008 ± 2	0.72 ± 0.02	0.67 ± 0.02	0.62 ± 0.01
